The values below come from publication PMC7714403 (JCI Insight, 2020).

The structures appear in SMILES notation. Some results are limits rather than exact numbers.

One test addresses Erk1 (Homo sapiens, UniProt P27361). Put plainly: KiNativ, OCI cells live cell. The test is classed as cell-based. The following applies: 2 h, labeling site Lys2, peptide […].
In a further test the target is T1, MERTK (Homo sapiens, UniProt Q12866).
T1 construct: purchased Eurofins DiscoverX
The experiment in a line: KdELECT binding assay.

The next test deals with PIK3CG (Homo sapiens, UniProt P48736). The experiment in a line: KiNativ, OCI cells live cell. The format is cell-based. The following applies: 2 h, labeling site ATP, peptide […].
In another test the target is CaMK2d (Homo sapiens, UniProt Q13557). The experiment in a line: KiNativ, OCI cells live cell. The format is cell-based. The following applies: 2 h, labeling site Lys1, peptide […].
For another test, the target named is PFTAIRE2 (Homo sapiens, UniProt Q96Q40). The experiment in a line: KiNativ, OCI cells live cell. The format is cell-based. The following applies: 2 h, labeling site Lys2, peptide […].
Another test concerns MARK2, MARK3. Put plainly: KiNativ, OCI cells live cell. The format is cell-based, human. The following applies: labeling site Lys2, peptide DLKAENLLLDADMNIK
Another test deals with T2, IRAK4 (Homo sapiens, UniProt Q9NWZ3).
T2 sequence (Q9NWZ3 1-460): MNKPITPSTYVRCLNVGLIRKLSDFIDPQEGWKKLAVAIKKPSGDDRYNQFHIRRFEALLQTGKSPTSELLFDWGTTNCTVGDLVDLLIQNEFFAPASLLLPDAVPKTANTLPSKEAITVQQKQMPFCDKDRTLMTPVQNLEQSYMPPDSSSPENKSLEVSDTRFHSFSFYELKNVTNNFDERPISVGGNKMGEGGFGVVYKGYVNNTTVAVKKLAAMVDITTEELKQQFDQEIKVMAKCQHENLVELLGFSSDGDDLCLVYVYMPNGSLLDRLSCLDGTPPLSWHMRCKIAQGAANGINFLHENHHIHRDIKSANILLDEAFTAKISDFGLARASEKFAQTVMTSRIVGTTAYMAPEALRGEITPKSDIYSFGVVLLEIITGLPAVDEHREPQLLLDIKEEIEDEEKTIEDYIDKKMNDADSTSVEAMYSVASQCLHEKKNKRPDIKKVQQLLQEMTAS
Put plainly: KiNativ, OCI cells live cell. The format is cell-based.

The target of the next test is p38b (Homo sapiens, UniProt Q15759). Put plainly: KiNativ, OCI cells live cell. The test is classed as cell-based. The following applies: 2 h, labeling site Other, peptide […].
In test [1] the test system is murine FLT3-ITD+/– IDH2-R140Q+/– AML cells. The experiment in a line: Primary transplantation model of murine AML cells. The format is in vivo, NSG mice. The method, then: Engraftment and growth of leukemic cells were monitored by noninvasive bioluminescence imaging in cell line xenograft models, as previously done ([47]). Details on the cell engraftment and dosing in mouse models are provided in the Supplemental Methods.
Luc+ or MOLM13-Res -Luc+ cells, 0.5 million OCI-AML3 -Luc+ cells, and 10,000 Ba/F3-FLT3-ITD/F691L-GFP+ cells. Weekly tumor engraftment of cell line xenograft models were assessed after injection of D-luciferin (150mg/kg i.p.; Gold Biotechnology, Inc, St. Louis, MO) on Xenogen IVIS-200 imaging system (Perkin Elmer, Waltham, MA) or GFP monitoring by peripheral blood via BD LSR II flow cytometer (BD Biosciences, San Jose, CA). Signal intensity was analyzed using Living Image Software (PerkinElmer) or FlowJo v10.0.08 software (FlowJo, LLC, Ashland, OR). Mice were randomized to treatment groups based on signal intensity and leukemia burden. Drug treatments were started on days 3, 7, or 13 after cell injection in OCI-AML3, MOLM13, and MOLM13-Res xenografts, respectively. In murine AML transplantation model, 1 million FLT3-ITD+/-/IDH2-R140Q+/- splenocytes (in house colony) were intravenously injected in male NSG mice. […]
At indicated time points, cells were collected and washed with PBS. CD11b expression was measured using anti-CD11b -APC antibody (BioLegend, San Diego, CA). […] CD11b expression and apoptosis were measured by BD LSR II flow cytometer. […]

Another test deals with CRK7 (Homo sapiens, UniProt Q9NYV4). Put plainly: KiNativ, OCI cells live cell. The test is classed as cell-based. The following applies: labeling site Lys2, peptide DIKCSNILLNNSGQIK
Sequence of CRK7 (Q9NYV4 whole entry): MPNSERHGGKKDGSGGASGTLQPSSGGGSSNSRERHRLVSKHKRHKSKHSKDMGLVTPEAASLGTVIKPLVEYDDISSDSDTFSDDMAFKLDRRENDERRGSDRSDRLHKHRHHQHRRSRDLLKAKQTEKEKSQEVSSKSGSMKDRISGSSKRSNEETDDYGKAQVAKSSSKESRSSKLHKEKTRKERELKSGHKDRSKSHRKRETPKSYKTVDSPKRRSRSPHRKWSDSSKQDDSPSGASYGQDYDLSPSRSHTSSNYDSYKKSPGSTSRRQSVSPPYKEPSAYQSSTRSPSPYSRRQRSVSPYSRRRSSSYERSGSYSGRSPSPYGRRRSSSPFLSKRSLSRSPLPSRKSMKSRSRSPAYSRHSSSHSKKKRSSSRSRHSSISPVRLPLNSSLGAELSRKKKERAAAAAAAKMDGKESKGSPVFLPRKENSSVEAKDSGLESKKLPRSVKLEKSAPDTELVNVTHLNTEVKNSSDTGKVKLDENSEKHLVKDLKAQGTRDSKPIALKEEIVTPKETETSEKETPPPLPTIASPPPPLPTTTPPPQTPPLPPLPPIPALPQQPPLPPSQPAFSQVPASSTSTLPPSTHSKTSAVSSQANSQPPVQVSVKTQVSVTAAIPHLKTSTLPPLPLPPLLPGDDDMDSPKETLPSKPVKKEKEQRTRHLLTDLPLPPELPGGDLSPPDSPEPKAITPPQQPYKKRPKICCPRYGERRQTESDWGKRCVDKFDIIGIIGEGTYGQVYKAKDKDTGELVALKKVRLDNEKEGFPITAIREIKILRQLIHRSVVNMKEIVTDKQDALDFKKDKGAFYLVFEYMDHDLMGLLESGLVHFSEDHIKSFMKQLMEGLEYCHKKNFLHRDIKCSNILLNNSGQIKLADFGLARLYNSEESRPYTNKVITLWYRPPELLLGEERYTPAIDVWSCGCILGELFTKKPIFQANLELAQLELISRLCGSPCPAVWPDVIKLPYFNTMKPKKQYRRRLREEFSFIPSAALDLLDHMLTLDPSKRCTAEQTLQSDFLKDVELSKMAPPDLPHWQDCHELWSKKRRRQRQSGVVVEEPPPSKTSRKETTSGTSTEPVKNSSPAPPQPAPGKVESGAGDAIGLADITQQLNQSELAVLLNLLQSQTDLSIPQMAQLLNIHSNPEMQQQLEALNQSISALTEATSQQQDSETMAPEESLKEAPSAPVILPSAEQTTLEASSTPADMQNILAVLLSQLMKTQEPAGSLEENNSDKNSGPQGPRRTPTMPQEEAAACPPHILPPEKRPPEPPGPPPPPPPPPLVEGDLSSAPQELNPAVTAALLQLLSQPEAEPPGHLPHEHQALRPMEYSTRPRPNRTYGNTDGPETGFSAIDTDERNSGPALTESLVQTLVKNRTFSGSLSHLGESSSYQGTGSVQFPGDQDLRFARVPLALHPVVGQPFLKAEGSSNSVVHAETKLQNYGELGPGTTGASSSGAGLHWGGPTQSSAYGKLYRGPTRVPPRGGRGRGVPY
Sequence of CRK7 (O75909 whole entry partner): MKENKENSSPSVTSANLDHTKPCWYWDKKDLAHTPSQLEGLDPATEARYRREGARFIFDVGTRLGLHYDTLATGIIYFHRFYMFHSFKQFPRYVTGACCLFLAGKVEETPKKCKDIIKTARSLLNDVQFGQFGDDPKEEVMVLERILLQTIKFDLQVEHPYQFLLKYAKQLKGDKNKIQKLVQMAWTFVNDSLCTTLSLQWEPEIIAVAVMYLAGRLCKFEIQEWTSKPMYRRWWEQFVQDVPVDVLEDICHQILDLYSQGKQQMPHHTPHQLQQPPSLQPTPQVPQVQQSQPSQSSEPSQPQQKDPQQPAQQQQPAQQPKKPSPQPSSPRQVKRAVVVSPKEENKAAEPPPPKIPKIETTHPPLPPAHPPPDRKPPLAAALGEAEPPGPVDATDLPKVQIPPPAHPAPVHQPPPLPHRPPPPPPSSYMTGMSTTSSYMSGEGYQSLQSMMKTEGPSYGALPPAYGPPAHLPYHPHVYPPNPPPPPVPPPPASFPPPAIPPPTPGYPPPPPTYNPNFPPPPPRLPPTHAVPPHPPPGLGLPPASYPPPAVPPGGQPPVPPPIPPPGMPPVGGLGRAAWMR

Sequence of CaMK2d (Q13557 whole entry): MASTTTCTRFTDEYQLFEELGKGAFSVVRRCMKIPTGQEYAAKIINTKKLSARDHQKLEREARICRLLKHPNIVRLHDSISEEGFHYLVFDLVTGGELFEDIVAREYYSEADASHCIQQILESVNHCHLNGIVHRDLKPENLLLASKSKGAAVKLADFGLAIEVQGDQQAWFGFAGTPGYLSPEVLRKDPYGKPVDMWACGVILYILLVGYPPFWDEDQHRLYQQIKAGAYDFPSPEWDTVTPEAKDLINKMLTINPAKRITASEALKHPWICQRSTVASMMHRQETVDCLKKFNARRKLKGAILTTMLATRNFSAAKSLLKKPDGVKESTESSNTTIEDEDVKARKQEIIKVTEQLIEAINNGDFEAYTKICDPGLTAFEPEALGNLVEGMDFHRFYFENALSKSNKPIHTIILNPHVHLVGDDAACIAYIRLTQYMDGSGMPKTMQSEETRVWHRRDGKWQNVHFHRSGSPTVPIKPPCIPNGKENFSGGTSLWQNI
Sequence of PFTAIRE2 (Q96Q40 whole entry): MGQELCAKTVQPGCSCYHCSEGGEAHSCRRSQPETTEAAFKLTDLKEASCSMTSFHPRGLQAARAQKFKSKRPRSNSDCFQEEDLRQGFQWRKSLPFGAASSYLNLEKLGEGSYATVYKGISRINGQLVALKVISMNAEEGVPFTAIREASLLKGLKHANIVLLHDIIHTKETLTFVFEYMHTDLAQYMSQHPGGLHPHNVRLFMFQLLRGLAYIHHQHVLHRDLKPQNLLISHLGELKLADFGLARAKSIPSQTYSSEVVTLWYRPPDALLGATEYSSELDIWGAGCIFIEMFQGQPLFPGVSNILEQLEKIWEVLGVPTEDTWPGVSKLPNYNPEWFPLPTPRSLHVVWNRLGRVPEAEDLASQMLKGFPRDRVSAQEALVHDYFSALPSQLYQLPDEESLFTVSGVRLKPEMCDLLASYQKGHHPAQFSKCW
Sequence of p38b (Q15759 whole entry): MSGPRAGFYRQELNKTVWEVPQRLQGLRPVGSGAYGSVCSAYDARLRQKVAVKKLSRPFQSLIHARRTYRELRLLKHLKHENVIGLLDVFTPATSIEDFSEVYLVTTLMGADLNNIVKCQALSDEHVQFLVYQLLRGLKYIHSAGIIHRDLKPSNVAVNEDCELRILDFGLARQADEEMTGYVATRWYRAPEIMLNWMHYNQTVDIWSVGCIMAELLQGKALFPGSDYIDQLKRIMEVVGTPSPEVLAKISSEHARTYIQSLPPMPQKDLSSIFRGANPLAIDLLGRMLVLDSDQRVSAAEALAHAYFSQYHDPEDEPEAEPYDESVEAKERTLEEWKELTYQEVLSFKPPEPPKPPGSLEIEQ
T1 sequence (Q12866 21-999): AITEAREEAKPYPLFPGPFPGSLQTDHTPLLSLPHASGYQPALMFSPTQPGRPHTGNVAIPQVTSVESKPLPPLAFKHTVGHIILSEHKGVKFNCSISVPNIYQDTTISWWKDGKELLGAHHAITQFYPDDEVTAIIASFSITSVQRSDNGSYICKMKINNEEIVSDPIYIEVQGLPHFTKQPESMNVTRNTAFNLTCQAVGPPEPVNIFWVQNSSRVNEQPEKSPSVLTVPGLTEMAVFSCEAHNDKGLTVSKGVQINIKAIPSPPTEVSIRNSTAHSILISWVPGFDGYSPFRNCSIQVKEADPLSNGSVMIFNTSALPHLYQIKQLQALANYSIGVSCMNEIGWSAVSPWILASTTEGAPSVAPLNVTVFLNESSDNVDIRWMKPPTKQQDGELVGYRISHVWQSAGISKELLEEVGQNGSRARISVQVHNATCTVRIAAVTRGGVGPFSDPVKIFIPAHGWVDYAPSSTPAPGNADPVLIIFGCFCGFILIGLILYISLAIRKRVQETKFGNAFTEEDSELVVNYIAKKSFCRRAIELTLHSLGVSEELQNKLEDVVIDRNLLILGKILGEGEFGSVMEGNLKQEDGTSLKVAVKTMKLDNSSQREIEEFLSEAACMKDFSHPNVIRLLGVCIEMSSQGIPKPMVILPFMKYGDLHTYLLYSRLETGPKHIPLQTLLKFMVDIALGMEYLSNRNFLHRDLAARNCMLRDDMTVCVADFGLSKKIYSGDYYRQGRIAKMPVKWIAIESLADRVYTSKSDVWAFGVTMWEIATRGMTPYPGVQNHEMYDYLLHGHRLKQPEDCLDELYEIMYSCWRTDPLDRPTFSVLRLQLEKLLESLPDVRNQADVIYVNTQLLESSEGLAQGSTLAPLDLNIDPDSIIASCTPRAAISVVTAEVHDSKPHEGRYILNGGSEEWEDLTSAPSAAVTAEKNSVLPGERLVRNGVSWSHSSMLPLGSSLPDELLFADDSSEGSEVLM
Sequence of Erk1 (P27361 whole entry): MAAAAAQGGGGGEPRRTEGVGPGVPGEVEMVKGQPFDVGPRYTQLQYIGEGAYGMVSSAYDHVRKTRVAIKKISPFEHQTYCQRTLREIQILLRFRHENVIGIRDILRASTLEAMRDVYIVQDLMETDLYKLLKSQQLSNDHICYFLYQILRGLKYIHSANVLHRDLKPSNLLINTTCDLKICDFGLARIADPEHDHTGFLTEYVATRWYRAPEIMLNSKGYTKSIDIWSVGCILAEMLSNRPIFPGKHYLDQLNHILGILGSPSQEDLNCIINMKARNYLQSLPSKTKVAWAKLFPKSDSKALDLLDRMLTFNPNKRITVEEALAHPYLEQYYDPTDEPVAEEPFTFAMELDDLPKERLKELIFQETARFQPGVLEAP

Turning to `CN1CCN(Cc2ccc(Nc3ncc(Cl)c(Nc4ccccc4S(=O)(=O)N(C)C)n3)cc2)CC1` [TP-0903], the inhibition at 0.1 µM against Erk1 is 17.7%; on PIK3CG it was 5.5%; against CaMK2d it was 34.5%; against PFTAIRE2 it was 28.4%; against p38b it was -9.9%. The compound also came in with a Kd on MERTK below 5 nM. For the same compound, the Inhibition with MARK2, MARK3 is reported as 50.8%; at IRAK4 (labeling site Lys1, peptide GYVNNTTVAVKK), -0.0707%; at IRAK4 (labeling site Lys2, peptide DIKSANILLDEAFTAK), 8.2%; at CRK7 it was 57.2%. The “Spleen weight at study endpoint (mean ± SD)” value in [1] (40 mg/kg once daily) was found to be 50 ± 13 mg. For the same compound, in [1] (40 mg/kg once daily up to 6 weeks), the “Survival prolonged compared with vehicle” value is reported as 9 days.

As a reminder, the inhibition is the drop in the measured response relative to a control, in per cent. A word on the Kd: it is the free concentration of one partner at which half of the binding sites on the other are occupied at equilibrium, for simple one-to-one binding. A lower Kd goes with a tighter complex. In general, Inhibition refers to the relative decrease from the control value, in per cent.
